Assay results: article PMC7307922 (Journal of Medicinal Chemistry, 2020)
Converted amounts (≈) assume the structure as drawn. “And” between values parts separate entries of the source, which are not always exact repeats. Equal entries are not always repeated. Where two headings read alike, the source gives them in different places.

Key:
log D7.4 measurement = assay type: physicochemical; conditions: pH 7.4; read-out: logD7.4
Procedure: (§1) Solubility and log D7.4 measurements were performed in accordance to the previously published procedures.[35]

[1] = Kinetic aqueous solubility in PBS pH 7.4; assay type: physicochemical; conditions: for solubility: pH 7.4, read-out: Aq. solub.
Procedure: as §1

[2] = Stability toward mouse liver microsomes; conditions: remaining after 40 min incubation with MLMs
Procedure: The study was performed by Bienta (www.bienta.net). Mouse hepatic microsomes were isolated from pooled and perfused livers of male BALB/c mice (n = 50). Isolation was performed according to the standard protocol.[36]
Microsomal incubations were carried out in 96-well plates in 5 aliquots of 40 μL each (one for each time point). Liver microsomal incubation medium comprised PBS (100 mM, pH 7.4), MgCl2 (3.3 mM), NADPH (3 mM), glucose-6-phosphate (5.3 mM), and glucose-6-phosphate dehydrogenase (0.67 units/mL) with 0.42 mg of liver microsomal protein per ml. In the control reactions, the NADPH-cofactor system was substituted with PBS. […] Each reaction was performed in duplicates. Five time points over 40 min were analyzed. The reactions were stopped by adding 12 volumes of 90% acetonitrile–water to incubation aliquots, followed by protein sedimentation by centrifuging at 5500 rpm for 3 min. […]. Supernatants were analyzed using HPLC-MS/MS on an API 3000 PE instrument.

hFFA3 [3] = target: T1, hFFA3 (Homo sapiens, UniProt O14843); assay: cell-based; conditions: for Emax: HEK293, read-out: cAMP Emax; for cAMP pEC50: hFFA3, compound alone, mean of ≥3 independent experiments ± standard error
T1 sequence (O14843 1-346): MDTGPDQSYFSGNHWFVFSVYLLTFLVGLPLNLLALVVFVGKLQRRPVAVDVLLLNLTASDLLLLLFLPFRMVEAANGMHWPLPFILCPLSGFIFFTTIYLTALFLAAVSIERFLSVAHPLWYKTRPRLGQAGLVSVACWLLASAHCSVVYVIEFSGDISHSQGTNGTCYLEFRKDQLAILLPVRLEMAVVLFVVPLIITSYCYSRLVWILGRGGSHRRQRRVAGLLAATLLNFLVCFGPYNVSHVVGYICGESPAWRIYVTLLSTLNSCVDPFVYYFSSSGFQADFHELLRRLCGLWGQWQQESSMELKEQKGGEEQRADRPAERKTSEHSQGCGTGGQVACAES
Procedure: (§2) The ligands were initially screened in a human FFA3-dependent [^35S]GTPγS binding assay as this assay reflects receptor-mediated activation of Gi/o proteins and is known to generally correlate well with ligand affinity.[30] Analogues of particular interest were tested further in a cAMP inhibition assay as this is an important downstream effect of Gi-activation. […] It is furthermore performed in whole cells, is more downstream, includes G protein signal amplification, and therefore better reflects a more natural ligand–receptor response.
HEK293 Flp-In T-Rex cells stably transfected with FFA3-eYFP receptors were incubated overnight with doxycycline to induce expression, then harvested, and cryopreserved. On the day of each experiment, cells were thawed and resuspended in stimulation buffer. Assays were carried out using a 384-well plate format with 3000 cells/well using the CisBio cAMP GS dynamic kit as per manufacturer’s protocol. Compounds were tested for the ability to inhibit 0.3 μM forskolin-induced cAMP production after co-incubation for 1 h. Reactions were measured using a PHERAstar FS plate reader (BMGLabtech, Aylesbury, UK).

hFFA3 [4] = target: T1, hFFA3; assay: biochemical; conditions: for GTPγS pEC50: hFFA3, mean of ≥3 independent experiments ± standard error; for Emax: read-out: GTPγS Emax
Procedure: as §2
Membranes were isolated from Flp-In T-REx HEK293 cells treated with 100 ng/mL doxycycline to induce receptor expression. Cells were washed with ice-cold phosphate-buffered saline and removed from dishes by scraping before being centrifuged for 5 min at 4 °C, 3000 rpm. Pellets were resuspended in TE buffer (75 mM Tris–HCl, 5 mM EDTA; pH 7.5) with the addition of a protease inhibitor mixture (Roche Applied Science, West Sussex, UK). This was then homogenized with a 5 mL hand-held homogenizer and subsequently centrifuged at 1500 rpm for 5 min at 4 °C, from which the supernatant was collected and further centrifuged at 50 000 rpm for 30 min at 4 °C. The resulting pellet was resuspended in TE buffer, and the protein content was measured using a BCA protein assay kit (Pierce, Fisher Scientific, Loughborough, UK).
Reactions were initiated with the addition of [^35S]GTPγS at 50 nCi per tube; reactions were terminated after 1 h of incubation at 25 °C by rapid filtration through GF/C glass filters using a 24-well Brandel cell harvester (Alpha Biotech, Glasgow, UK). Unbound radioligand was removed from filters by washing three times with ice-cold wash buffer (50 mM Tris–HCl, pH 7.4, and 10 mM MgCl2), and [^35S]GTPγS binding was determined by liquid scintillation spectrometry.

Q: For `CC1=C(C(=O)Nc2cc(Cl)ccc2Cl)C(c2nccs2)C2=C(CCCC2=O)N1` (stereo not shown) [Compound 47, N-(2,5-Dichlorophenyl)-2-methyl-5-oxo-4-(thiazol-2-yl)-1,4,5,6,7,8-hexahydroquinoline-3-carboxamide], which logD at 24 h (log D7.4 measurement) is on record?
A: Its logD at 24 h is 3.39.

Q: And the solubility [1]?
A: The solubility was 1 µM (≈ 0.434 µg/mL).

Q: And the solubility ([1]; phosphate buffered saline)?
A: The solubility was 2 µM (≈ 0.869 µg/mL).

Q: And the “MLM (%) remaining” value [2]?
A: The value was 2%.

Q: With `CC1=C(C(=O)Nc2cc(Cl)ccc2Cl)C(c2ncco2)C2=C(CCCC2=O)N1` (stereo not shown) [Compound 51, N-(2,5-Dichlorophenyl)-2-methyl-4-(oxazol-2-yl)-5-oxo-1,4,5,6,7,8-hexahydroquinoline-3-carboxamide] as the molecule, how does the logD at 24 h (log D7.4 measurement) read?
A: Its logD at 24 h is 2.59.

Q: And the solubility ([1]; phosphate buffered saline)?
A: The solubility was 1 µM (≈ 0.418 µg/mL).

Q: And the “MLM (%) remaining” value [2]?
A: The value was 12%.

Q: And the Emax (hFFA3 [3])?
A: Its Emax is 95%.

Q: What about the “cAMP pEC50” value (hFFA3 [3]) of the same molecule?
A: The value was 6.72 ± 0.05.

Q: Which logD at 24 h (log D7.4 measurement) does the source give for `CCCC1C(C(=O)Nc2cc(C)ccc2Cl)=C(C)NC2=C1C(=O)CCC2` (stereo not shown) [Compound 60, N-(2-Chloro-5-methylphenyl)-2-methyl-5-oxo-4-propyl-1,4,5,6,7,8-hexahydroquinoline-3-carboxamide] here?
A: Its logD at 24 h is 3.57.

Q: And the solubility ([1]; phosphate buffered saline)?
A: The solubility was 145 µM (≈ 54.1 µg/mL).

Q: And the Emax (hFFA3 [3])?
A: The Emax was 103%.

Q: And the “cAMP pEC50” value (hFFA3 [3])?
A: The value was 6.19 ± 0.10.

Q: For `CCCC1C(C(=O)Nc2ccccc2C)=C(C)NC2=C1C(=O)CCC2` (stereo not shown) [Compound 35, 2-Methyl-5-oxo-4-propyl-N-(o-tolyl)-1,4,5,6,7,8-hexahydroquinoline-3-carboxamide], which logD (log D7.4 measurement) is on record?
A: Its logD is 2.64.

Q: What about the solubility ([1]; phosphate buffered saline) of the same molecule?
A: The solubility was 199 µM (≈ 67.4 µg/mL).

Q: And the “MLM (%) remaining” value [2]?
A: The value was 23%.

Q: And the Emax (hFFA3 [3])?
A: The Emax was 101%.

Q: What about the “PAM pEC50” value (hFFA3 [3]; cAMP assay in the presence of 1 μM propionate) of the same molecule?
A: Its value is 6.16 ± 0.10.

Q: What about the “cAMP pEC50” value (hFFA3 [3]) of the same molecule?
A: Its value is 5.92 ± 0.01.

Q: With `CCCC1C(C(=O)Nc2cccc(Cl)c2)=C(C)NC2=C1C(=O)CCC2` (stereo not shown) [Compound 59, N-(3-Chlorophenyl)-2-methyl-5-oxo-4-propyl-1,4,5,6,7,8-hexahydroquinoline-3-carboxamide] as the molecule, how does the logD at 24 h (log D7.4 measurement) read?
A: Its logD at 24 h is 3.77.

Q: What about the “increase of solubility compared to 57” value ([1]; kinetic solubility) of the same molecule?
A: Its value is 4–5 fold.

Q: And the solubility ([1]; phosphate buffered saline)?
A: The solubility was 137 µM (≈ 49.2 µg/mL).

Q: What about the Emax (hFFA3 [3]) of the same molecule?
A: Its Emax is 105%.

Q: And the “cAMP pEC50” value (hFFA3 [3])?
A: Its value is 5.97 ± 0.05.

Q: Which results are given for `CC1=C(C(=O)Nc2cc(Cl)ccc2Cl)C(c2cncs2)C2=C(CCCC2=O)N1` (stereo not shown) [Compound 48, N-(2,5-Dichlorophenyl)-2-methyl-5-oxo-4-(thiazol-5-yl)-1,4,5,6,7,8-hexahydroquinoline-3-carboxamide]?
A: logD at 24 h (log D7.4 measurement): 3.23; solubility ([1]; phosphate buffered saline): 1 µM (≈ 0.434 µg/mL); Emax (hFFA3 [3]): 97%; cAMP pEC50 (hFFA3 [3]): 5.75 ± 0.03

Q: What does the source list for `CC1=C(C(=O)Nc2cc(Cl)ccc2Cl)C(C2CC2)C2=C(CCCC2=O)N1` (stereo not shown) [Compound 62, 4-Cyclopropyl-N-(2,5-dichlorophenyl)-2-methyl-5-oxo-1,4,5,6,7,8-hexahydroquinoline-3-carboxamide]?
A: logD at 24 h (log D7.4 measurement): 3.73; solubility ([1]; phosphate buffered saline): 5 µM (≈ 1.96 µg/mL); MLM (%) remaining [2]: 1−2% and 1%

Q: For `CC1=C(C(=O)Nc2cc(Cl)ccc2Cl)C(c2cocn2)C2=C(CCCC2=O)N1` (stereo not shown) [Compound 50, N-(2,5-Dichlorophenyl)-2-methyl-4-(oxazol-4-yl)-5-oxo-1,4,5,6,7,8-hexahydroquinoline-3-carboxamide], which logD at 24 h (log D7.4 measurement) is on record?
A: The logD at 24 h was 2.84.

Q: What about the “increase of solubility relative to 16” value ([1]; kinetic solubility) of the same molecule?
A: The value was > 10 fold.

Q: What about the solubility ([1]; phosphate buffered saline) of the same molecule?
A: Its solubility is 62 µM (≈ 25.9 µg/mL).

Q: What about the Emax (hFFA3 [3]) of the same molecule?
A: Its Emax is 97%.

Q: And the “cAMP pEC50” value (hFFA3 [3])?
A: Its value is 5.78 ± 0.03.

Q: What does the source list for `CCCC1C(C(=O)Nc2cc(OC)ccc2Cl)=C(C)NC2=C1C(=O)CCC2` (stereo not shown) [Compound 61, N-(2-Chloro-5-methoxyphenyl)-2-methyl-5-oxo-4-propyl-1,4,5,6,7,8-hexahydroquinoline-3-carboxamide]?
A: logD at 24 h (log D7.4 measurement): 3.07; solubility ([1]; phosphate buffered saline): 157 µM (≈ 61.1 µg/mL); Emax (hFFA3 [3]): 96%; cAMP pEC50 (hFFA3 [3]): 5.96 ± 0.08

Q: Which logD at 24 h (log D7.4 measurement) does the source give for `CCCC1C(C(=O)Nc2ccccc2Cl)=C(C)NC2=C1C(=O)CCC2` (stereo not shown) [Compound 58, N-(2-Chlorophenyl)-2-methyl-5-oxo-4-propyl-1,4,5,6,7,8-hexahydroquinoline-3-carboxamide] here?
A: Its logD at 24 h is 3.22.

Q: And the “increase of solubility compared to 57” value ([1]; kinetic solubility)?
A: The value was 4–5 fold.

Q: What about the solubility ([1]; phosphate buffered saline) of the same molecule?
A: Its solubility is 169 µM (≈ 60.6 µg/mL).

Q: What about the Emax (hFFA3 [3]) of the same molecule?
A: Its Emax is 105%.

Q: What about the “cAMP pEC50” value (hFFA3 [3]) of the same molecule?
A: Its value is 6.06 ± 0.05.

Q: With `CC1=C(C(=O)Nc2cc(Cl)ccc2Cl)C(c2cscn2)C2=C(CCCC2=O)N1` (stereo not shown) [Compound 49, N-(2,5-Dichlorophenyl)-2-methyl-5-oxo-4-(thiazol-4-yl)-1,4,5,6,7,8-hexahydroquinoline-3-carboxamide] as the molecule, how does the logD at 24 h (log D7.4 measurement) read?
A: Its logD at 24 h is 3.28.

Q: And the solubility ([1]; phosphate buffered saline)?
A: The solubility was < 1 µM.

Q: And the Emax (hFFA3 [3])?
A: Its Emax is 95%.

Q: And the “cAMP pEC50” value (hFFA3 [3])?
A: The value was 5.71 ± 0.08.

Q: Which results are given for `CC1=C(C(=O)Nc2ccccc2C)C(c2ccccc2)C2=C(CCCC2=O)N1` (stereo not shown) [Compound 3, 2-Methyl-5-oxo-4-phenyl-N-(o-tolyl)-1,4,5,6,7,8-hexahydroquinoline-3-carboxamide]?
A: GTPγS pEC50 (hFFA3 [4]): 4.75 ± 0.11; Emax (hFFA3 [4]): 103%; Emax (hFFA3 [3]): 98%; increased potency in cAMP assay versus GTPγS assay (hFFA3 [3]; cAMP vs GTPγS data): 14 fold; cAMP pEC50 (hFFA3 [3]): 5.91 ± 0.04

Q: With `CC1=C(C(=O)Nc2cccc(C)c2)C(c2ccco2)C2=C(CCCC2=O)N1` (stereo not shown) [Compound 13, 4-(Furan-2-yl)-2-methyl-5-oxo-N-(m-tolyl)-1,4,5,6,7,8-hexahydroquinoline-3-carboxamide] as the molecule, how does the “GTPγS pEC50” value (hFFA3 [4]) read?
A: The value was 5.34 ± 0.15.

Q: What about the Emax (hFFA3 [4]) of the same molecule?
A: The Emax was 78%.

Q: What about the Emax (hFFA3 [3]) of the same molecule?
A: The Emax was 100%.

Q: And the “cAMP pEC50” value (hFFA3 [3])?
A: Its value is 5.80 ± 0.04.
